Assay results from ChEMBL document CHEMBL4342455, “Benwamycins A-G, Trialkyl-Substituted Benzene Derivatives from a Soil-Derived Streptomyces” (J Nat Prod, 2020).
pIC50: −log10 of the molar value. Calls of active or inactive are those of the source. No cut-off for these calls is given here.

What was measured:
3T3-L1 [1] = assay: Induction of glucose uptake in mature mouse 3T3L1 adipocytes assessed as [3H]2-deoxy-D-glucose uptake at 25 uM preincubated for 24 hrs followed by [3H]2-deoxy-D-glucose additon and measured after 10 mins by scintillation counting method relative to control; type: functional
T-cell = assay: Immunosuppressive activity in anti-CD3/anti-CD28-stimulated human T cells assessed as reduction in cell viability after 96 hrs by CFSE dye based flow cytometric analysis; type: functional
[2] = Cytotoxicity against human naive T cells assessed as reduction in cell viability after 96 hrs by flow cytometric analysis; type: cell-based
3T3-L1 [3] = assay: Induction of glucose uptake in mature mouse 3T3L1 adipocytes assessed as [3H]2-deoxy-D-glucose uptake at 10 uM preincubated for 24 hrs followed by [3H]2-deoxy-D-glucose additon and measured after 10 mins by scintillation counting method relative to control; type: functional

Structure (SMILES) | Activity (3T3-L1 [1]) | Activity (T-cell) | CC50 at 96 h [2] | pIC50 (T-cell) | Activity (3T3-L1 [3])
CCC1=CC(=O)[C@@H](C)[C@@H]([C@@H](C)c2ccc(CO)cc2/C=C/CO)O1 | inactive | inactive | – | – | –
CCC1=CC(=O)[C@@H](C)[C@@H]([C@@H](C)c2ccc(C)cc2/C=C/CO)O1 | 21.1% | – | > 80 µM | 4.90 | –
CCC(=O)O[C@@H]([C@H](C)C(C)=O)[C@@H](C)c1ccc(CO)cc1/C=C/CO | inactive | inactive | – | – | –
C[C@@H]([C@H](O)[C@@H](C)c1ccc(CO)cc1/C=C/CO)[C@H](C)O | inactive | inactive | – | – | –
CCC(=O)O[C@@H]([C@H](C)C(C)=O)[C@@H](C)c1ccc(C)cc1/C=C/CO | inactive | inactive | – | – | –
CC(=O)[C@@H](C)[C@H](O)[C@@H](C)c1ccc(CO)cc1/C=C/CO | inactive | inactive | – | – | –
COc1ccc2cc3[n+](cc2c1OC)CCc1cc2c(cc1-3)OCO2 [BERBERINE] | – | – | – | – | 25.5%
Cc1ccc([C@H](C)[C@@H](O)[C@H](C)[C@H](C)O)c(/C=C/CO)c1 | inactive | – | > 80 µM | 4.84 | –
CC(=O)OCc1ccc([C@H](C)[C@@H](O)[C@H](C)C(C)=O)c(/C=C/CO)c1 | 28.4% | inactive | – | – | –
CC(=O)[C@@H](C)[C@H](O)[C@@H](C)c1ccc(C)cc1/C=C/CO | inactive | inactive | – | – | –
CC(=O)[C@@H](C)[C@H](O)[C@@H](C)c1ccc(C)cc1/C=C/C(=O)O | inactive | inactive | – | – | –
